pIC50: −log10 of the molar value. Structures can show the parent of a compound that is named as a salt.
Key:
HCT116 [1] = assay: viability inhibition vs untreated; higher = more cytotoxic; conditions: 72 h
HCT116 [2] = conditions: 72 h
Description: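 HCT116 control and MTA1-KO (CRISPR) HCT116 cells were seeded in 384-well plates (800 cells/well), treated 16 h later with 237 metabolism-related anticancer drugs at five doses (10 uM, 2 uM, 400 nM, 80 nM, 16 nM) for 72 h, two replicates; viability by CCK8. Values are % inhibition of viability relative to untreated cells, plus fitted IC50.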

Compound | viability inhibition (HCT116 [1]; genotype: MTA1-KO, 16 nM) [%] | viability inhibition (HCT116 [1]; genotype: MTA1-KO, 80 nM) [%] | viability inhibition (HCT116 [1]; genotype: MTA1-KO, 400 nM) [%] | viability inhibition (HCT116 [1]; genotype: MTA1-KO, 2000 nM) [%] | viability inhibition (HCT116 [1]; genotype: MTA1-KO, 10000 nM) [%] | viability inhibition (HCT116 [1]; genotype: control, 16 nM) [%] | viability inhibition (HCT116 [1]; genotype: control, 80 nM) [%] | viability inhibition (HCT116 [1]; genotype: control, 400 nM) [%] | viability inhibition (HCT116 [1]; genotype: control, 2000 nM) [%] | viability inhibition (HCT116 [1]; genotype: control, 10000 nM) [%] | pIC50 (HCT116 [2]; genotype: MTA1-KO) | pIC50 (HCT116 [2]; genotype: control)
NS(=O)(=O)c1cc2c(cc1Cl)NC(CSCc1ccccc1)=NS2(=O)=O [Benzthiazide] | -4.89 | -8.13 | -6.12 | -11.1 | 36.1 | -2.68 | 0.658 | -1.2 | 7.85 | 44.8 | < 5.00 | < 5.00
Cc1cc(-n2cccc2)c(S(C)(=O)=O)cc1C(=O)N=C(N)N [Eniporide] | -5.44 | 3.61 | 2.87 | 16.5 | 60.9 | 1.06 | -2.91 | -4.47 | 3.58 | 8.84 | 5.21 | < 5.00
CC(C)n1c(/C=C/[C@H](O)C[C@H](O)CC(=O)O)c(-c2ccc(F)cc2)c2ccccc21 (racemic) [Fluvastatin sodium salt] | 12.1 | 16.7 | 12.8 | 19.3 | 60.4 | 5.71 | 10.5 | 12.1 | 38 | 32.9 | 5.05 | < 5.00
NC(N)=NCCC[C@H](N)C(=O)O [L-arginine monohydrochloride] | -2.61 | -19.3 | -11.5 | -6.84 | 12.2 | -3.45 | -8.59 | 1.36 | 1.49 | 23.5 | < 5.00 | < 5.00
O=c1c(O)c(-c2ccc(O)cc2)oc2cc(O)cc(O)c12 [Kaempferol] | 9.79 | 3.08 | 3.45 | 10.9 | 39 | 7.5 | 18.7 | -0.112 | 8.84 | 23.1 | < 5.00 | < 5.00
C[C@H](Oc1cc(-c2cnn(C3CCNCC3)c2)cnc1N)c1c(Cl)ccc(F)c1Cl [(S)-crizotinib] | -3.98 | -2.9 | -13.5 | -16.1 | 66.9 | 6.82 | -13.4 | -0.064 | -12.1 | -7.51 | 5.03 | < 5.00
CN(C)C(=N)N=C(N)N [Metformin hydrochloride] | -20.9 | -15.7 | -16.8 | -16.1 | -14.1 | -3.73 | -8.51 | 4.88 | 7.24 | 3.98 | < 5.00 | < 5.00
O=C(Oc1cccc(F)c1OC(=O)c1cccc(O)c1)c1cccc(O)c1 [WZB117] | 1.38 | -12.9 | -10.3 | -1.16 | 12.7 | -23.3 | -8.87 | -3.93 | -25.9 | -15 | < 5.00 | < 5.00
CC(C)n1nc(-c2cc3cc(O)ccc3[nH]2)c2c(N)ncnc21 [Torkinib] | -28.4 | -28.6 | -28.2 | -9.28 | 27.1 | -1.58 | -1.28 | -0.73 | 8.7 | 65.9 | < 5.00 | 5.09
N[C@@H](CCC(=O)N[C@@H](CS)C(=O)NCC(=O)O)C(=O)O [Glutathione] | -21.2 | -27.6 | -21.1 | -16.6 | -21.7 | 8.47 | 0.941 | -7.27 | 8.72 | 5.08 | < 5.00 | < 5.00
CC1(C)OCCn2c1nc1c(N3CCOCC3)nc(-c3cnc(N)nc3)nc12 [GDC0084] | -2.94 | 9.67 | 48 | 77.1 | 83.3 | 7.86 | 5.85 | 42.9 | 78.2 | 76.1 | 6.49 | 6.45

Source: the supplement of paper PMC10477900
